Experimental data published in US20260001886A1, “ENPP1 INHIBITORS I” (RE Ventures I, LLC, priority 2024, published 2026).

What was measured:
[1] = target: T1, human CA-II (CA2) (Homo sapiens (Human), UniProt P00918); assay: biochemical
Protocol: (§1) Cytiva Biacore S200, T200 and 3000 machines were used for all SPR experiments. […] For carbonic anhydrases, data were collected at a constant temperature of 25° C. Human CA-I (CA1) or human CA-II (CA2) was captured via standard EDC/NHS protocol on a Biacore CM5 chip using standard protocols in HBS-N buffer (10 mM HEPES (pH 7.4), 150 mM NaCl) at ˜2000 RU. The experiments were run in PBS buffer containing 0.05% Tween 20 and 3% DMSO. All compounds were initially screened at concentrations ranging from 23 nM to 50 µM or 4.6 nM to 10 µM, injecting from the lowest to highest concentrations and adjusting appropriately for each compound for repeat experiments. Scrubber 2 (Biologic software) was used to process and analyse SPR data. […] Data for the inhibitors were referenced to those for a blank surface and blank injections to normalise for non-specific binding and drift. A DMSO calibration was run to remove excluded volume effect of binding responses between reference and target surface.

[2] = target: T1, human CA-II (CA2); assay: Surface plasmon resonance, carbonic anhydrase II; settings: 25° C., CM5 chip
Protocol: as §1

[3] = target: human CA-I (CA1) (Homo sapiens (Human), UniProt P00915); assay: Surface plasmon resonance, carbonic anhydrase I; settings: 25° C., CM5 chip
Protocol: as §1

[4] = target: Human ENPP1 (Homo sapiens (Human), UniProt P22413)
Sequence of Human ENPP1 (P22413 whole entry): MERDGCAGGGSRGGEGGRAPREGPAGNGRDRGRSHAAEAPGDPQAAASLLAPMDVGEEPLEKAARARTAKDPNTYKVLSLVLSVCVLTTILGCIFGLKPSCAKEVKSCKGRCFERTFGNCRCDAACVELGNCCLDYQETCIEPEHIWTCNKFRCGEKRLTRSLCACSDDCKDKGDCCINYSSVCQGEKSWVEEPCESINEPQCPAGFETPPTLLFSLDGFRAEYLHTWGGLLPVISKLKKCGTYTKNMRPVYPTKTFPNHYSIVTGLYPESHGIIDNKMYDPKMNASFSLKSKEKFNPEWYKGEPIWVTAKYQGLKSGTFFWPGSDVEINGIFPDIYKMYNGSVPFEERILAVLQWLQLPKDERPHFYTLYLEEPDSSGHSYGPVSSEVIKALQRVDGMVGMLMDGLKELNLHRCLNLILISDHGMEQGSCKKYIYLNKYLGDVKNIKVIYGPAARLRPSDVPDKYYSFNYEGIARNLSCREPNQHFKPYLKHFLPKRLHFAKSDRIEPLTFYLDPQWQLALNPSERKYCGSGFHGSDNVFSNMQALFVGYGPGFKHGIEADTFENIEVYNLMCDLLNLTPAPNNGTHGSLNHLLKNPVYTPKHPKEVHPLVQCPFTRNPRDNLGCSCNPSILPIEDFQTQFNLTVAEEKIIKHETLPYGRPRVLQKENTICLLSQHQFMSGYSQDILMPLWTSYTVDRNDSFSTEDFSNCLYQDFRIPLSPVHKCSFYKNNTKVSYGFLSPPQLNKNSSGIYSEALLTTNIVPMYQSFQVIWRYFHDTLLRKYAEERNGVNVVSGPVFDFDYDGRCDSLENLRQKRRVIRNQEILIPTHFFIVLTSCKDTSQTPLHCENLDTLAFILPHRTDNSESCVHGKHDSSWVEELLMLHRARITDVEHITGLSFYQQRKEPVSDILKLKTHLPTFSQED
Protocol: ENPP1 catalyses the hydrolysis of ATP into AMP+PPi. AMP production was monitored using Bellbrooks Transcreener AMP/GMP TR-FRET assay kit (Cat No. 3020-10K) according to the manufacturer's instructions. The assay was run with 50 mM Tris pH 7.5, 5 mM MgCl2, 150 mM NaCl, 0.005% Tween20 and distilled H2O. Antibody and tracer were diluted to 2 nM. […] Mouse ENPP1 was run at 15 pM with ATP at 400 nM. AMP produced in the assay by ENPP1 activity competes with a far-red tracer labelled AMP bound to an AMP specific antibody resulting in a decrease in TR-FRET. ENPP1 inhibition reduces AMP production and increases the TR-FRET signal.

Sequence of human CA-I (CA1) (P00915 whole entry): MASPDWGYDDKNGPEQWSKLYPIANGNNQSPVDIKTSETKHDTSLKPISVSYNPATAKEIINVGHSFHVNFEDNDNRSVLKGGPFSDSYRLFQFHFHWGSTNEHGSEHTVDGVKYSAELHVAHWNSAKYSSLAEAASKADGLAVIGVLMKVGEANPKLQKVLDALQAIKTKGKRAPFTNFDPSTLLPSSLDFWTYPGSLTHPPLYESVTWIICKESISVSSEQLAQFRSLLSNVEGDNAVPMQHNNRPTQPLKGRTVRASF

Kd [1]	CA2 human SPR pKD [2]	CA1 human SPR pKD [3]	EC50 [4]	Compound
–	–	–	0.0316 µM	CC(C)c1cn(Cc2ccc(S(=N)(=O)C(F)F)cc2)c2nc(C3CC3)nn2c1=O (single isomer, unassigned) [Compound 50]
–	–	–	0.00126 µM	Cc1cc([S@@](C)(=N)=O)ccc1Cn1cc(C(C)C)c(=O)n2nc(C3CC3)cc12 (single isomer, unassigned) [Compound 66]
–	–	–	0.00631 µM	CC(C)c1cn(Cc2ccc([S@@](=N)(=O)C(C)C)cc2)c2nc(C3CC3)nn2c1=O (single isomer, unassigned) [Compound 68]
–	4.2	3.0	0.00501 µM	COc1c(C2CC2)nn2c(=O)c(C(C)C)cn(C[C@H]3C[C@H]4C[C@@H]3CN4S(N)(=O)=O)c12 [Compound 44, (1S,4S,5S)-5-((2-Cyclopropyl-6-isopropyl-3-methoxy-7-oxopyrazolo[1,5-a]pyrimidin-4(7H)-yl)methyl)-2-azabicyclo[2.2.1]heptane-2-sulfonamide]
–	–	–	0.00631 µM	CC(C)c1cn(C[C@H]2C[C@H]3C[C@@H]2CN3S(N)(=O)=O)c2c(C#N)c(C3CC3)nn2c1=O [Compound 45, (1S,4S,5S)-5-((3-Cyano-2-cyclopropyl-6-isopropyl-7-oxopyrazolo[1,5-a]pyrimidin-4(7H)-yl)methyl)-2-azabicyclo[2.2.1]heptane-2-sulfonamide]
–	–	–	0.0316 µM	CC(C)c1cn(Cc2ccc3c(c2)CCS3(=N)=O)c2nc(C3CC3)nn2c1=O (stereo not shown) [Compound 48, 2-Cyclopropyl-4-((1-imino-1-oxido-2,3-dihydro-1H-1l4-benzo[b]thiophen-5-yl)methyl)-6-isopropyl-[1,2,4]triazolo[1,5-a]pyrimidin-7(4H)-one]
–	–	–	0.126 µM	Cc1nc2n(Cc3ccc4c(c3)CCCS4(=N)=O)cc(C(C)C)c(=O)n2n1 (stereo not shown) [Compound 52, 4-((1-Imino-1-oxido-1/4-thiochroman-6-yl)methyl)-6-isopropyl-2-methyl-[1,2,4]triazolo[1,5-a]pyrimidin-7(4H)-one]
–	–	–	0.1 µM	CC(C)c1cn(Cc2ccc3c(c2)OCCS3(=N)=O)c2nc(C3CC3)nn2c1=O (stereo not shown) [Compound 53, 2-Cyclopropyl-4-((4-imino-4-oxido-3,4-dihydro-2H-4lambda4-benzo[b][1,4]oxathiin-7-yl)methyl)-6-isopropyl-[1,2,4]triazolo[1,5-a]pyrimidin-7(4H)-one]
–	3.0	<1	–	CC(C)c1cn(Cc2ccc(S(C)(=N)=O)cc2)c2cc(C3CC3)nn2c1=O (stereo not shown) [Compound 57, 2-Cyclopropyl-6-isopropyl-4-(4-(S-methylsulfonimidoyl)benzyl)pyrazolo[1,5-a]pyrimidin-7(4H)-one]
–	3.8	3.0	0.00398 µM	Cc1cc(S(C)(=N)=O)ccc1Cn1cc(C(C)C)c(=O)n2nc(C3CC3)cc12 (stereo not shown) [Compound 61, 2-Cyclopropyl-6-isopropyl-4-(2-methyl-4-(S-methylsulfonimidoyl)benzyl)pyrazolo[1,5-a]pyrimidin-7(4H)-one]
–	3.0	<1	–	CC(C)c1cn(Cc2ccc(S(C)(=N)=O)cc2F)c2cc(C3CC3)nn2c1=O (stereo not shown) [Compound 62, 2-Cyclopropyl-4-(2-fluoro-4-(S-methylsulfonimidoyl)benzyl)-6-isopropylpyrazolo[1,5-a]pyrimidin-7(4H)-one]
–	–	–	0.01 µM	CC(C)c1cn(Cc2ccc(S(C)(=N)=O)c(F)c2)c2nc(C3CC3)nn2c1=O (stereo not shown) [Compound 63, 2-Cyclopropyl-4-(3-fluoro-4-(S-methylsulfonimidoyl)benzyl)-6-isopropyl-[1,2,4]triazolo[1,5-a]pyrimidin-7(4H)-one]
–	–	–	0.00794 µM	CC(C)c1cn(Cc2ccc(S(=N)(=O)C(C)C)cc2)c2nc(C3CC3)nn2c1=O (stereo not shown) [Compound 64, 2-Cyclopropyl-6-isopropyl-4-(4-(propan-2-ylsulfonimidoyl)benzyl)-[1,2,4]triazolo[1,5-a]pyrimidin-7(4H)-one]

Continued, compound first:

Compound	Kd [1]	CA2 human SPR pKD [2]	CA1 human SPR pKD [3]	EC50 [4]
CC(C)c1cn(Cc2ccc(S(C)(=N)=O)cc2)c2cc(C3CC3)nn2c1=O (racemic) [3 Rac]	> 100000 µM	–	–	–
CC(C)c1cn(Cc2ccc([S@](C)(=N)=O)cc2)c2cc(C3CC3)nn2c1=O (single isomer, unassigned) [Compound 3A]	> 100000 µM	–	–	–
CC(C)c1cn(Cc2ccc([S@@](C)(=N)=O)cc2)c2cc(C3CC3)nn2c1=O (single isomer, unassigned) [Compound 3B]	> 100000 µM	–	–	–
Cc1cc2n(Cc3ccc([S@](C)(=N)=O)cc3)cc(C(C)C)c(=O)n2n1 (single isomer, unassigned) [Compound 9B]	–	<1	<1	–
CC(C)c1cn(Cc2ccc([S@](C)(=N)=O)cc2F)c2nc(C3CC3)nn2c1=O (single isomer, unassigned) [Compound 69]	–	<1	<1	–
Cc1nc2n(C[C@H]3C[C@H]4C[C@@H]3CN4S(N)(=O)=O)cc(-c3cccnc3)c(=O)n2n1 [Compound 2, (1S,4S,5S)-5-((2-methyl-7-oxo-6-(pyridin-3-yl)-[1,2,4]triazolo[1,5-a]pyrimidin-4(7H)-yl)methyl)-2-azabicyclo[2.2.1]heptane-2-sulfonamide]	–	–	–	0.251 µM
Cc1nn2c(=O)c(C(C)C)cn(C[C@H]3C[C@H]4C[C@@H]3CN4S(N)(=O)=O)c2c1Cl [Compound 4, (1S,4S,5S)-5-((3-chloro-6-isopropyl-2-methyl-7-oxopyrazolo[1,5-a]pyrimidin-4(7H)-yl)methyl)-2-azabicyclo[2.2.1]heptane-2-sulfonamide]	–	4.9	3.0	–
Cc1nc2n(C[C@H]3C[C@H]4C[C@@H]3CN4S(N)(=O)=O)cc(-c3cccc(F)c3)c(=O)n2n1 [Compound 6, (1S,4S,5S)-5-((6-(3-fluorophenyl)-2-methyl-7-oxo-[1,2,4]triazolo[1,5-a]pyrimidin-4(7H)-yl)methyl)-2-azabicyclo[2.2.1]heptane-2-sulfonamide]	–	3.6	3.0	0.1 µM
CC(C)c1cn(Cc2ccc(S(C)(=N)=O)cc2F)c2nc(C3CC3)nn2c1=O (stereo not shown) [Compound 12, 2-cyclopropyl-4-(2-fluoro-4-(S-methylsulfonimidoyl)benzyl)-6-isopropyl-[1,2,4]triazolo[1,5-a]pyrimidin-7(4H)-one]	–	3.0	<1	–
Cc1nc2n(C[C@H]3C[C@H]4C[C@@H]3CN4S(N)(=O)=O)cc(-c3ccc(F)cc3)c(=O)n2n1 [Compound 14, (1S,4S,5S)-5-((6-(4-fluorophenyl)-2-methyl-7-oxo-[1,2,4]triazolo[1,5-a]pyrimidin-4(7H)-yl)methyl)-2-azabicyclo[2.2.1]heptane-2-sulfonamide]	–	3.0	<1	0.00398 µM
CC(C)c1cn(Cc2ccc(S(C)(=N)=O)c(C(F)(F)F)c2)c2cc(C3CC3)nn2c1=O (stereo not shown) [Compound 20, 2-cyclopropyl-6-isopropyl-4-(4-(S-methylsulfonimidoyl)-3-(trifluoromethyl)benzyl) pyrazolo[1,5-a]pyrimidin-7(4H)-one]	–	–	–	0.00631 µM
CC(C)c1cn(Cc2ccc(S(C)(=N)=O)cc2)c2nc(OC3CC3)nn2c1=O (stereo not shown) [Compound 25, 2-cyclopropoxy-6-isopropyl-4-(4-(S-methylsulfonimidoyl)benzyl)-[1,2,4]triazolo[1,5-a]pyrimidin-7(4H)-one]	–	–	–	0.00631 µM
CC(C)c1cn(Cc2c(F)cc(S(C)(=N)=O)cc2F)c2nc(C3CC3)nn2c1=O (stereo not shown) [Compound 26, 2-cyclopropyl-4-(2,6-difluoro-4-(S-methylsulfonimidoyl)benzyl)-6-isopropyl-[1,2,4]triazolo[1,5-a]pyrimidin-7(4H)-one]	–	3.0	3.0	0.0126 µM
CNc1nc(S(N)(=O)=O)ccc1Cn1cc(C(C)C)c(=O)n2nc(C3CC3)nc12 [Compound 29, 5-((2-cyclopropyl-6-isopropyl-7-oxo-[1,2,4]triazolo[1,5-a]pyrimidin-4(7H)-yl)methyl)-6-(methylamino)pyridine-2-sulfonamide]	31.6 µM	–	–	–
COCc1nc2n(Cc3ccc(S(C)(=N)=O)cc3)cc(C(C)C)c(=O)n2n1 (stereo not shown) [Compound 33, 6-isopropyl-2-(methoxymethyl)-4-(4-(S-methylsulfonimidoyl)benzyl)-[1,2,4]triazolo[1,5-a]pyrimidin-7(4H)-one]	–	–	–	0.00794 µM
CC(C)c1cn(C[C@H]2C[C@H]3C[C@@H]2CN3S(N)(=O)=O)c2nc(Cl)nn2c1=O [Compound 34, (1S,4S,5S)-5-((2-chloro-6-isopropyl-7-oxo-[1,2,4]triazolo[1,5-a]pyrimidin-4(7H)-yl)methyl)-2-azabicyclo[2.2.1]heptane-2-sulfonamide]	–	–	–	0.0158 µM
CC(C)c1cn(C[C@H]2C[C@H]3C[C@@H]2CN3S(N)(=O)=O)c2c3cccnc3nn2c1=O [Compound 41, (1S,4S,5S)-5-((3-Isopropyl-4-oxopyrido[2′,3′: 3,4]pyrazolo[1,5-a]pyrimidin-1 (4H)-yl)methyl)-2-azabicyclo[2.2.1]heptane-2-sulfonamide]	–	3.0	3.0	–
COc1cccc2c1nn1c(=O)c(C(C)C)cn(C[C@H]3C[C@H]4C[C@@H]3CN4S(N)(=O)=O)c21 [Compound 42, (1S,4S,5S)-5-((3-Isopropyl-7-methoxy-4-oxopyrimido[1,2-b]indazol-1 (4H)-yl)methyl)-2-azabicyclo[2.2.1]heptane-2-sulfonamide]	–	4.5	3.0	–
CC(C)c1nn2c(=O)c(C(C)C)cn(C[C@H]3C[C@H]4C[C@@H]3CN4S(N)(=O)=O)c2c1F [Compound 43, (1S,4S,5S)-5-((3-Fluoro-2,6-diisopropyl-7-oxopyrazolo[1,5-a]pyrimidin-4(7H)-yl)methyl)-2-azabicyclo[2.2.1]heptane-2-sulfonamide]	–	4.8	3.0	0.00398 µM
